The subject of one test is M. tuberculosis H37Rv. To be noted: BACTEC 12B medium; cited from earlier work.
The subject of a further test is M. bovis BCG. Nature of the test: microbe, parasite or virus in culture. The format is cell-based, Mycobacterium bovis BCG. As to conditions: for inhibition at 100 µg/mL: Mycobacterium tuberculosis variant bovis BCG, BCG, 192 h.
Another test has as its system dormant tubercle bacilli. To be noted: cited from earlier work.
The next test deals with M. tuberculosis. Put plainly: Antitubercular activity against active and dormant bacilli of M. tuberculosis. The format is cell-based, Mycobacterium tuberculosis H37Ra.
Setting [1] is: read-out: Antimycobacterial activity % inhibition at 100 μg/ml Aerobic/Active stage.
The mark [2] stands for this setting: read-out: Antimycobacterial activity % inhibition at 100 μg/ml Anearobic/Dormant stage.

Structures are written as SMILES. Where two headings read alike, the source gives them in different places.

In the case of `CCCSc1nnc(-c2ncc([N+](=O)[O-])n2C)s1` [2-(1-Methyl-5-nitro-1H-imidazol-2-yl)-5-(n-propyl)thio-1,3,4-thiadiazole], in the test on M. tuberculosis H37Rv, the “inhibition effects in the primary screening” value (“inhibition effects” below) was 90%. Regarding `O=[N+]([O-])c1ccc(-c2nnc(SCc3ccccc3[N+](=O)[O-])s2)o1` [2-(5-nitro-2-furyl)-5-(2-nitrobenzyl)thio-1,3,4-thiadiazole], the “inhibition effects” value with M. tuberculosis H37Rv is recorded as 90%. `C#CCSc1nnc(-c2ccc([N+](=O)[O-])o2)s1` [2-(5-nitro-2-furyl)-5-(2-propynyl)thio-1,3,4-thiadiazole]: the “inhibition effects” value with M. tuberculosis H37Rv is reported as 90%. With `O=[N+]([O-])c1cccc(CSc2nnc(-c3ccc([N+](=O)[O-])o3)s2)c1` [2-(5-nitro-2-furyl)-5-(3-nitrobenzyl)thio-1,3,4-thiadiazole], the “inhibition effects” value in the test with M. tuberculosis H37Rv was 90%. For `O=[N+]([O-])c1ccc(CSc2nnc(-c3ccc([N+](=O)[O-])o3)s2)cc1` [2-(5-nitro-2furyl)-5-(4-nitrobenzyl)thio-1,3,4-thiadiazole], the “inhibition effects” value in the test with M. tuberculosis H37Rv is reported as 90%. As to `C#CCn1nc(SCC=C)nc1C(C)(C)C` [8d, 3-(allylthio)-5-tert-butyl-1-(prop-2-ynyl)-1H-1,2,4-triazole], the inhibition at 100 µg/mL worked out at 98% in the test on M. bovis BCG (setting [1]) and 82% in the test on M. bovis BCG (setting [2]). The corresponding values for `C#CCSc1ncnn1CC=C` [9a, 1-allyl-5-(prop-2-ynylthio)-1H-1,2,4-triazole] are 40% and 22%. Taken in the same sequence, the figures for `C#CCSc1nc(C)nn1CC=C` [10a, 1-allyl-3-methyl-5-(prop-2-ynylthio)-1H-1,2,4-triazole] were 98% and 93%. Taken in the same sequence, the figures for `C#CCSc1nc(C)n(CC=C)n1` [10b, 1-allyl-5-methyl-3-(prop-2ynylthio)-1H-1,2,4-triazole] were 98% and 92%. Turning to `C#CCn1nc(Br)nc1Br` [11a, 3,5-dibromo-1-(prop-2-ynyl)-1H-1,2,4-triazole], the inhibition at 100 µg/mL with M. bovis BCG (setting [1]) came to 97%; in the test with M. bovis BCG (setting [2]), 20%. The corresponding values for `C=CCn1nc(Br)nc1Br` [11b, 1-allyl-3,5-dibromo-1H-1,2,4-triazole] are 12% and 21%. Regarding `C=C(C)Cn1nc(Br)nc1Br` [11c, 3,5-dibromo-1-(2-methylallyl)-1H-1,2,4-triazole], the values for the inhibition at 100 µg/mL in the test with M. bovis BCG (setting [1]) and in the test with M. bovis BCG (setting [2]) were 9% and 19%, respectively. The corresponding values for `Brc1nc(Br)n(Cc2cn(Cc3ccccc3)nn2)n1` [11d, 1-benzyl-4-((3,5-dibromo-1H-1,2,4-triazol-1-yl)methyl)-1H-1,2,3-triazole] are 2% and 13%. In the case of `OC(Cn1cncn1)(Cn1cncn1)c1ccc(F)cc1F` [Fluconazole], in the test on dormant tubercle bacilli, the “Effectiveness against dormant tubercle bacilli” value is “not effective”. With `C=CCSc1n[nH]c(-c2ccc(Cl)cc2)n1` [compound 4f, 3-(allylthio)-5-(4-chlorophenyl)-1H-1,2,4-triazole], the “Effectiveness against active and dormant stage of the bacilli” value with M. tuberculosis is reported as “effective against both active as well as dormant stage”; in the test with M. bovis BCG (M. bovis BCG, active and dormant stage), “effective against both active as well as dormant stage”. For the same compound, the values for the inhibition at 100 µg/mL with M. bovis BCG (setting [1]) and with M. bovis BCG (setting [2]) were 98% and 91%, respectively. Turning to `CC(C)(C)C(O)(CCc1ccc(Cl)cc1)Cn1cncn1` (stereo not drawn) [tebuconazole], the “Effectiveness against dormant tubercle bacilli” value with dormant tubercle bacilli is given as “not effective”.
